Measured values reported in PMC8708492, “Homing Peptide-Based Targeting of Tenascin-C and Fibronectin in Endometriosis” (Nanomaterials, 2021).

Tests used:
[1] = tested on: 12Z cells; experiment: Binding of peptide-displaying T7 phages to cultured cells (plaque assay); set-up: species or system human; details: peptide displayed on T7 phage, 12Z cells in suspension, 4 °C, 1 h, washed, N = 3
Method: (§1) Peptide-displaying T7 bacteriophages were prepared by cloning nucleotide sequences coding for different peptides into phage genomic DNA to be expressed on the phage surface as C-terminal fusions to capsid protein. The complementary oligonucleotides were annealed, and the cloning was performed according to the manufacturer’s protocol using the T7Select® 415-1 Cloning Kit (Millipore, 70015-3, Merck KGaA, Darmstadt, Germany). Peptide-displaying phage clones were thereafter amplified in complementing host bacterial cells BLT5403 and purified with polyethylene glycol according to an established protocol.
(§2) Prior to phage addition, 12Z and HESC cells were detached, washed with PBS, and resuspended in 0.5% BSA containing DMEM. Phages expressing a single peptide of interest (5 × 10^7 PFU/mL) were added to 5 × 10^7 cells, wherein insertless phage was used as a negative control. Incubation with phage clones was carried out on a slowly rocking platform at 4 °C for 1 h. Cells were washed four times with 0.5% BSA containing DMEM to eliminate unbound phages. Finally, the cells together with bound phages were resuspended in 1% NP40 containing LB solution, and plaque assay was performed as described earlier. Briefly, the amount of phage in cell lysates was determined by titering using Escherichia coli strain BLT5615 in LB medium containing 2 mM IPTG.
(§3) Figure 1 Binding of peptide-phages to cultured 12Z and HESC cells. Cells were incubated with the different peptide-displaying phages at 4 °C for 1 h, washed, and phage binding quantified by plaque assay. The phage binding is represented as a fold over insertless phage. N = 3, error bars = ±SEM. *** p < 0.001 (compared with insertless phage).

[2] = tested on: HESC cells; experiment: as above; set-up: species or system human; details: peptide displayed on T7 phage, HESC cells in suspension, 4 °C, 1 h, washed, N = 3
Method: as §1, §2, §3

Row | Substance | phage binding, fold over insertless phage [1] | phage binding, fold over insertless phage [2]
1 | PPRRGLIKLKTS [PL1] | 13–16 fold | 13–16 fold
2 | AGRGRLVR (displayed on T7 phage) [PL3] | 4–6 fold | 4–6 fold
3 | VRRADNRPG [EM1, receptor CNGB3] | low/background binding | 
4 | C * RGDKGPDC * (disulfide) [iRGD, disulfide-cyclised peptide targeting angiogenic αv integrins and NRP-1] | 3 fold | 9 fold
5 | RPARPAR | low/background binding | ~ 2 fold
6 | RTRLHTR [EM2, receptor unknown] | low/background binding | ~ 2 fold
